These results are taken from patent US12144864B2, “Tubulysins and protein-tubulysin conjugates” (Regeneron Pharmaceuticals, Inc., priority 2018, dated 2024).

Read-outs that look alike come from different tables or passages of the source.

The subject of one experiment is T47D cells. As to the kind of experiment: Cell-based killing assay of payloads (CellTiter-Glo), T47D cells. Further details: species or system human. The conditions noted are these: 5-day incubation; for IC50: Homo sapiens, T47D, 120 h; for T47D % Kill: at maximum concentration tested. As to the method: (§1) To test the ability of the disclosed tubulysin payloads to kill human cell lines, an in vitro cytotoxicity assay was performed. In vitro cytotoxicity of the disclosed payloads, as well as reference compounds, were evaluated using the CellTiter-Glo Assay Kit (Promega, Cat #G7573), in which the quantity of ATP present is used to determine the number of viable cells in culture. For the assay, C4-2, HEK293, or T47D cells were seeded at 4000 cells/well on Nunclon white 96-well plates in complete growth medium (DME high glucose:Ham's F12 at 4:1, 10% FBS, 100 units/ml Penicillin, 100 ug/ml streptomycin, 53 ug/ml glutatmine, 10 ug/ml insulin, 220 ng/ml biotin, 12.5 pg/ml T3, 12.5 ug/ml Adenine, 4 ug/ml transferrin for C42 cells; DME high glucose, 10% FBS, 100 units/ml Penicillin, 100 ug/ml streptomycin, 53 ug/ml glutatmine for HEK293; RPMI, 10% FBS, 100 units/ml Penicillin, 100 ug/ml streptomycin, 53 ug/ml glutatmine, 10 ug/ml insulin, 10 mM HEPEs, 200 nM Sodium Pyruvate for T47D cells) and grown overnight at 37° C. in 5% CO2. For cell viability curves, 1:3 serially diluted payloads were added to the cells at final concentrations ranging from 100 nM to […], including a no treatment control group, and were then incubated for 5 days. After the 5-day incubation, cells were incubated at room temperature with 100 μL of CellTiter-Glo reagents for 10 minutes. Relative luminescence units (RLU) were determined on a Victor plate reader (PerkinElmer). The IC50 values were determined from a four-parameter logistic equation over a 10-point response curve (GraphPad Prism). All IC50 values are expressed in molar (M) concentration. The percent cell killing (% kill) at the maximum concentration tested was estimated from the following formula (100−% viable cells). Averages±standard deviation (SD) are included where replicate experiments were performed.
(ATP-based viability assays read luminescence as a measure of living cells.)

The next experiment has as its system HCT15 cells. As to the kind of experiment: cells. It counts as cell-based, human. The conditions noted are these: HCT15 cells; for HCT-15 + verapamil % Kill / HCT-15 % Kill: maximum % cell killing. In short, it runs like this: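 HCT15 colorectal carcinoma cells, 1000 per well in RPMI/10% FBS, with or without 5 ug/mL verapamil, exposed to 1:3 serially diluted payloads for 5 days at 37 °C. Viability measured by CellTiter-Glo ATP luminescence; IC50 from four-parameter logistic fit of a 10-point curve, % kill at top concentration.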

For a further experiment, the system named is C4-2 cells. As to the kind of experiment: Cell-based killing assay of payloads (CellTiter-Glo), C4-2 cells. Also on record: species or system human. The following applies: 5-day incubation; for IC50: Homo sapiens, C4-2, 120 h, average ± SD where replicates; for C4-2 % Kill: at maximum concentration tested (100 − % viable cells). In short, it runs like this:
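Cells plated at 4000/well in line-specific complete medium, grown overnight, then exposed to 1:3 serial dilutions of payload (100 nM to […]) for 5 days. ATP-based CellTiter-Glo luminescence read; IC50 from four-parameter logistic 10-point fit, and % kill at top concentration as 100 − % viable.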

Another experiment relates to HEK293 cells. As to the kind of experiment: Cell-based killing assay of payloads (CellTiter-Glo), HEK293 cells. Further details: species or system human. The conditions noted are these: 5-day incubation; for IC50: Homo sapiens, HEK293, 120 h; for HEK293 % Kill: at maximum concentration tested. Here is the method:
as §1

The mark [1] stands for this setting: with 5 ug/mL Verapamil, read-out: HCT-15 + verapamil IC50.
The mark [2] stands for this setting: Homo sapiens, HCT-15, without Verapamil, read-out: HCT-15 IC50.

As for `C#CCCCON(C(=O)[C@@H](NC(=O)[C@H]1CCCCN1C)[C@@H](C)CC)[C@H](C[C@@H](OC(C)=O)c1nc(C(=O)N[C@@H](Cc2ccc(F)cc2)C[C@H](C)C(=O)O)cs1)C(C)C` [Vf, (2S,4R)-4-({2-[(1R,3R)-1-(Acetyloxy)-4-methyl-3-[(2S,3S)-3-methyl-2-{[(2R)-1-methylpiperidin-2-yl]formamido}-N-(pent-4-yn-1-yloxy)pentanamido]pentyl]-1,3-thiazol-4-yl}formamido)-5-(4-fluorophenyl)-2-methylpentanoic acid], the 50% inhibitory concentration (IC50) (as a rule, the concentration that gives 50% inhibition) was 0.396 nM with T47D cells; 0.375 nM in the experiment on HCT15 cells (setting [1]); 3.36 nM in the experiment with HCT15 cells (setting [2]); 0.9 nM with C4-2 cells; 0.666 nM with HEK293 cells. For the same molecule, the “T47D % Kill” value in the experiment with T47D cells is listed as 68%. The “HCT-15 + verapamil % Kill” value in the experiment with HCT15 cells (with 5 ug/mL Verapamil) was found to be 98%. For the same molecule, the “HCT-15 % Kill” value with HCT15 cells (without Verapamil) came to 96.5%. Moreover, the “C4-2 % Kill” value with C4-2 cells was 90%. Besides, in the experiment with HEK293 cells, the “HEK293 % Kill” value was determined as 83.8%.
With `C#CCCCON(C(=O)[C@@H](NC(=O)[C@H]1CCCCN1C)[C@@H](C)CC)[C@H](C[C@@H](OC(C)=O)c1nc(C(=O)N[C@@H](Cc2ccc(F)cc2)CC(C)(C)C(=O)O)cs1)C(C)C` [Vd, (4S)-4-({2-[(1R,3R)-1-(Acetyloxy)-4-methyl-3-[(2S,3S)-3-methyl-2-{[(2R)-1-methylpiperidin-2-yl]formamido}-N-(pent-4-yn-1-yloxy)pentanamido]pentyl]-1,3-thiazol-4-yl}formamido)-5-(4-fluorophenyl)-2,2-dimethylpentanoic acid], the IC50 came to 0.444 nM with T47D cells; 0.352 nM in the experiment with HCT15 cells (setting [1]); 1.93 nM in the experiment with HCT15 cells (setting [2]); 0.384 nM in the experiment with C4-2 cells; 0.59 nM in the experiment on HEK293 cells. The “T47D % Kill” value with T47D cells is given as 66%. The “HCT-15 + verapamil % Kill” value in the experiment on HCT15 cells (with 5 ug/mL Verapamil) turned out to be 98.7%. In the experiment on HCT15 cells (without Verapamil), the “HCT-15 % Kill” value is recorded as 99.7%. Moreover, in the experiment on C4-2 cells, the “C4-2 % Kill” value is recorded as 91.3%. Besides, in the experiment on HEK293 cells, the “HEK293 % Kill” value came to 86.3%.
`CC[C@H](C)[C@H](NC(=O)[C@H]1CCCCN1C)C(=O)N(OCCCO)[C@H](C[C@@H](OC(C)=O)c1nc(C(=O)N[C@@H](Cc2ccc(O)cc2)C[C@H](C)C(=O)O)cs1)C(C)C` [Vk, (2S,4R)-4-(2-((1R,3R)-1-Acetoxy-3-((2S,3S)—N-(3-hydroxypropoxy)-3-methyl-2-((R)-1-methylpiperidine-2-carboxamido)pentanamido)-4-methylpentyl)thiazole-4-carboxamido)-5-(4-hydroxyphenyl)-2-methylpentanoic acid]: the concentration for half-maximal inhibition (IC50) is above 100 nM in the experiment with T47D cells, 42.7 nM in the experiment with HCT15 cells (setting [1]), at least 100 nM with HCT15 cells (setting [2]) and above 100 nM in the experiment on HEK293 cells. Moreover, the “HCT-15 + verapamil % Kill” value with HCT15 cells (with 5 ug/mL Verapamil) was 83%. Moreover, the “HCT-15 % Kill” value in the experiment on HCT15 cells (without Verapamil) is recorded as 41.5%.
As to `C#CCCCON(C(=O)[C@@H](NC(=O)[C@H]1CCCCN1C)[C@@H](C)CC)[C@H](C[C@@H](OC(=O)NCC)c1nc(C(=O)N[C@@H](Cc2ccc(N)cc2)CC(C)(C)C(=O)O)cs1)C(C)C` [VIf, (4S)-5-(4-Aminophenyl)-4-({2-[(1R,3R)-1-[(ethylcarbamoyl)oxy]-4-methyl-3-[(2S,3S)-3-methyl-2-{[(2R)-1-methylpiperidin-2-yl]formamido}-N-(pent-4-yn-1-yloxy)pentanamido]pentyl]-1,3-thiazol-4-yl}formamido)-2,2-dimethylpentanoic acid], the IC50 in the experiment on T47D cells is 0.302 nM; in the experiment with HCT15 cells (setting [1]), 0.0854 nM; in the experiment with HCT15 cells (setting [2]), 2.06 nM; with C4-2 cells it was 0.312 nM; with HEK293 cells, 0.383 nM. The “T47D % Kill” value with T47D cells came to 63.2%. The “HCT-15 + verapamil % Kill” value in the experiment with HCT15 cells (with 5 ug/mL Verapamil) amounted to 98.8%. Moreover, in the experiment on HCT15 cells (without Verapamil), the “HCT-15 % Kill” value came to 99.1%. Also, the “C4-2 % Kill” value in the experiment with C4-2 cells worked out at 93.9%. Further, in the experiment on HEK293 cells, the “HEK293 % Kill” value worked out at 85.6%.
Consider `CCCCCCON(C(=O)[C@@H](NC(=O)[C@H]1CCCCN1C)[C@@H](C)CC)[C@H](C[C@@H](OC(=O)NCCCC)c1nc(C(=O)N[C@@H](Cc2ccc(O)cc2)C[C@H](C)C(=O)O)cs1)C(C)C` [VId, (2S,4R)-5-(4-Hydroxyphenyl)-4-(2-((8R,10R)-10-isopropyl-11-((2S,3S)-3-methyl-2-((R)-1-methylpiperidine-2-carboxamido)pentanoyl)-6-oxo-7,12-dioxa-5,11-diazaoctadecan-8-yl)thiazole-4-carboxamido)-2-methylpentanoic acid], for which the half-inhibitory concentration (IC50) was 2.51 nM with T47D cells; 0.482 nM in the experiment with HCT15 cells (setting [1]); above 30 nM in the experiment on HCT15 cells (setting [2]); 2.4 nM with C4-2 cells; 5.26 nM in the experiment with HEK293 cells. Further, the “T47D % Kill” value in the experiment with T47D cells stood at 68.4%. The “HCT-15 + verapamil % Kill” value in the experiment with HCT15 cells (with 5 ug/mL Verapamil) came out at 99%. Further, the “HCT-15 % Kill” value in the experiment with HCT15 cells (without Verapamil) is 78.7%. In the experiment with C4-2 cells, the “C4-2 % Kill” value is listed as 95.5 ± 2.6%. Also, the “HEK293 % Kill” value in the experiment on HEK293 cells came to 78.5%.
For `CC[C@H](C)[C@H](NC(=O)[C@H]1CCCCN1C)C(=O)N(OCCCOCc1ccc(N)cc1)[C@H](C[C@@H](OC(C)=O)c1nc(C(=O)N[C@@H](Cc2ccc(O)cc2)C[C@H](C)C(=O)O)cs1)C(C)C` [Vj, (2S,4R)-4-(2-((8R,10R)-1-(4-Aminophenyl)-8-isopropyl-7-((2S,3S)-3-methyl-2-((R)-1-methylpiperidine-2-carboxamido)pentanoyl)-12-oxo-2,6,11-trioxa-7-azatridecan-10-yl)thiazole-4-carboxamido)-5-(4-hydroxyphenyl)-2-methylpentanoic acid], the IC50 is above 100 nM with T47D cells; 39.2 nM in the experiment with HCT15 cells (setting [1]); above 100 nM in the experiment with HCT15 cells (setting [2]); 53.1 nM in the experiment with C4-2 cells; above 100 nM with HEK293 cells. In addition, the “T47D % Kill” value with T47D cells stood at 14.6%. In addition, the “HCT-15 + verapamil % Kill” value in the experiment on HCT15 cells (with 5 ug/mL Verapamil) is recorded as 77.4%. The “HCT-15 % Kill” value with HCT15 cells (without Verapamil) is −3.8%. For the same molecule, in the experiment on C4-2 cells, the “C4-2 % Kill” value stood at 68.5 ± 39.2%. Moreover, the “HEK293 % Kill” value in the experiment with HEK293 cells stood at 4.7%.
On to `CCCCCCNC(=O)O[C@H](C[C@H](C(C)C)N(OCCCCCC)C(=O)[C@@H](NC(=O)[C@H]1CCCCN1C)[C@@H](C)CC)c1nc(C(=O)N[C@@H](Cc2ccc(O)cc2)C[C@H](C)C(=O)O)cs1` [VIe, (2S,4R)-5-(4-Hydroxyphenyl)-4-(2-((9R,11R)-9-isopropyl-8-((2S,3S)-3-methyl-2-((R)-1-methylpiperidine-2-carboxamido)pentanoyl)-13-oxo-7,12-dioxa-8,14-diazaicosan-11-yl)thiazole-4-carboxamido)-2-methylpentanoic acid], for which the 50% inhibitory concentration (IC50) with T47D cells was 2.27 nM; in the experiment on HCT15 cells (setting [1]), 0.295 nM; in the experiment with HCT15 cells (setting [2]) it was above 100 nM; with C4-2 cells, 8.22 nM; with HEK293 cells, 4.77 nM. Also, in the experiment with T47D cells, the “T47D % Kill” value stood at 72.7%. Further, the “HCT-15 + verapamil % Kill” value with HCT15 cells (with 5 ug/mL Verapamil) is on record as 98.8%. In the experiment with HCT15 cells (without Verapamil), the “HCT-15 % Kill” value is 36.6%. Further, the “C4-2 % Kill” value with C4-2 cells stood at 94.4 ± 0.2%. For the same molecule, the “HEK293 % Kill” value in the experiment with HEK293 cells turned out to be 76.7%.
On to `CC[C@H](C)[C@H](NC(=O)[C@H]1CCCCN1C)C(=O)N(CCCCc1c[nH]nn1)[C@H](C[C@@H](OC(C)=O)c1nc(C(=O)N[C@@H](Cc2ccc(N)cc2)CC(C)(C)C(=O)O)cs1)C(C)C` [IVj, (S)-4-(2-((1R,3R)-3-((2S,3S)—N-(4-(1H-1,2,3-triazol-5-yl)butyl)-3-methyl-2-((R)-1-methylpiperidine-2-carboxamido)pentanamido)-1-acetoxy-4-methylpentyl)thiazole-4-carboxamido)-5-(4-aminophenyl)-2,2-dimethylpentanoic acid], for which the IC50 with T47D cells was determined as 17.7 nM; in the experiment on HCT15 cells (setting [1]) it was 5.56 nM; in the experiment with HCT15 cells (setting [2]) it was 7.8 nM; with C4-2 cells, 7.16 nM; in the experiment on HEK293 cells, 17.6 nM. Further, in the experiment on T47D cells, the “T47D % Kill” value was determined as 79.9%. The “HCT-15 + verapamil % Kill” value in the experiment with HCT15 cells (with 5 ug/mL Verapamil) came out at 98.4%. Moreover, the “HCT-15 % Kill” value in the experiment with HCT15 cells (without Verapamil) is listed as 96.4%. Moreover, in the experiment on C4-2 cells, the “C4-2 % Kill” value is recorded as 94.5%. In addition, in the experiment on HEK293 cells, the “HEK293 % Kill” value worked out at 75.5%.
